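1) Cells in 96-well plates. 2) Compound, 48 h, 5 concentrations. 3) Linear interpolation between surrounding doses. 4) Unreached endpoint = highest concentration. GI50 marks 50% less growth.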 Active and inactive are the calls of the source. No stated cut-off is given here; in the data, active = GI50 up to about 1.1 µM and inactive = higher.
Legend:
Assay in all cases: NCI tumour cell line growth inhibition, 48 h
786-0 = tested on: 786-0
A498 = tested on: A498
A549 = tested on: A549
ACHN = tested on: ACHN
CAKI-1 = tested on: CAKI-1
CCRF-CEM = tested on: CCRF-CEM
COLO 205 = tested on: COLO 205
DLD-1 = tested on: DLD-1
DMS-114 = tested on: DMS-114
DMS-273 = tested on: DMS-273
EKVX = tested on: EKVX
HCC 2998 = tested on: HCC 2998
HCT-116 = tested on: HCT-116
HCT-15 = tested on: HCT-15
HL-60 = tested on: HL-60
HOP-18 = tested on: HOP-18
HOP-62 = tested on: HOP-62
HOP-92 = tested on: HOP-92
HT-29 = tested on: HT-29
IGROV-1 = tested on: IGROV-1
K562 = tested on: K562
KM-20L2 = tested on: KM-20L2
KM12 = tested on: KM12
LOX IMVI = tested on: LOX IMVI
LXFL 529 = tested on: LXFL 529
M14 = tested on: M14
M19-MEL = tested on: M19-MEL
MOLT-4 = tested on: MOLT-4
Malme-3M = tested on: Malme-3M
NCI-H226 = tested on: NCI-H226
NCI-H23 = tested on: NCI-H23
NCI-H460 = tested on: NCI-H460
NCI-H522 = tested on: NCI-H522
OVCAR-3 = tested on: OVCAR-3
OVCAR-4 = tested on: OVCAR-4
OVCAR-5 = tested on: OVCAR-5
OVCAR-8 = tested on: OVCAR-8
RPMI-8226 = tested on: RPMI-8226
RXF 393 = tested on: RXF 393
SF-268 = tested on: SF-268
SF-295 = tested on: SF-295
SF-539 = tested on: SF-539
SK-MEL-28 = tested on: SK-MEL-28
SK-MEL-2 = tested on: SK-MEL-2
SK-MEL-5 = tested on: SK-MEL-5
SK-OV-3 = tested on: SK-OV-3
SN12C = tested on: SN12C
SNB-19 = tested on: SNB-19
SNB-75 = tested on: SNB-75
SNB-78 = tested on: SNB-78
SW-620 = tested on: SW-620
TK-10 = tested on: TK-10
U-251 = tested on: U-251
UACC-257 = tested on: UACC-257
UACC-62 = tested on: UACC-62
UO-31 = tested on: UO-31
XF498 = tested on: XF498
SR = tested on: SR
NCI/ADR-RES = tested on: NCI/ADR-RES

## O=[N+]([O-])c1cccc(/C=N/C23CC4CC(CC(C4)C2)C3)c1
786-0
  GI50: > 100 µM (inactive)
A498
  GI50: > 100 µM (inactive)
A549
  GI50: > 100 µM (inactive)
ACHN
  GI50: > 100 µM (inactive)
CAKI-1
  GI50: > 100 µM (inactive)
CCRF-CEM
  GI50: 25.1 µM (inactive)
COLO 205
  GI50: > 100 µM (inactive)
DLD-1
  GI50: > 100 µM (inactive)
DMS-114
  GI50: > 100 µM (inactive)
DMS-273
  GI50: > 100 µM (inactive)
EKVX
  GI50: > 100 µM (inactive)
HCC 2998
  GI50: > 100 µM (inactive)
HCT-116
  GI50: > 100 µM (inactive)
HCT-15
  GI50: > 100 µM
HL-60
  GI50: 23.9 µM (inactive)
HOP-18
  GI50: > 100 µM (inactive)
HOP-62
  GI50: > 100 µM (inactive)
HOP-92
  GI50: > 100 µM (inactive)
HT-29
  GI50: > 100 µM (inactive)
IGROV-1
  GI50: > 100 µM (inactive)
K562
  GI50: 29.7 µM (inactive)
KM-20L2
  GI50: > 100 µM (inactive)
KM12
  GI50: > 100 µM (inactive)
LOX IMVI
  GI50: 63.7 µM (inactive)
LXFL 529
  GI50: > 100 µM (inactive)
M14
  GI50: > 100 µM (inactive)
M19-MEL
  GI50: > 100 µM (inactive)
MOLT-4
  GI50: 74.1 µM (inactive)
Malme-3M
  GI50: > 100 µM (inactive)
NCI-H226
  GI50: > 100 µM (inactive)
NCI-H23
  GI50: > 100 µM (inactive)
NCI-H460
  GI50: > 100 µM (inactive)
NCI-H522
  GI50: > 100 µM (inactive)
OVCAR-3
  GI50: > 100 µM (inactive)
OVCAR-4
  GI50: > 100 µM (inactive)
OVCAR-5
  GI50: > 100 µM (inactive)
OVCAR-8
  GI50: > 100 µM (inactive)
RPMI-8226
  GI50: > 10 µM (inactive)
RXF 393
  GI50: > 100 µM (inactive)
SF-268
  GI50: > 100 µM (inactive)
SF-295
  GI50: > 100 µM (inactive)
SF-539
  GI50: > 100 µM (inactive)
SK-MEL-28
  GI50: > 100 µM (inactive)
SK-MEL-2
  GI50: > 100 µM (inactive)
SK-MEL-5
  GI50: 70.8 µM (inactive)
SK-OV-3
  GI50: > 100 µM (inactive)
SN12C
  GI50: > 100 µM (inactive)
SNB-19
  GI50: > 100 µM (inactive)
SNB-75
  GI50: > 100 µM (inactive)
SNB-78
  GI50: > 100 µM (inactive)
SW-620
  GI50: 57.1 µM (inactive)
TK-10
  GI50: > 100 µM (inactive)
U-251
  GI50: > 100 µM (inactive)
UACC-257
  GI50: > 100 µM (inactive)
UACC-62
  GI50: > 100 µM (inactive)
UO-31
  GI50: > 100 µM (inactive)
XF498
  GI50: > 100 µM (inactive)

## CC(=O)c1cccc(NC(=O)/C(=N\NC(C)(C)C)c2c(O)c3ccccc3oc2=O)c1
786-0
  GI50: > 100 µM (inactive)
A549
  GI50: > 100 µM (inactive)
ACHN
  GI50: > 100 µM (inactive)
CAKI-1
  GI50: > 100 µM (inactive)
CCRF-CEM
  GI50: > 100 µM (inactive)
COLO 205
  GI50: > 100 µM (inactive)
DLD-1
  GI50: > 100 µM (inactive)
DMS-114
  GI50: > 100 µM (inactive)
DMS-273
  GI50: > 100 µM (inactive)
EKVX
  GI50: > 100 µM (inactive)
HCC 2998
  GI50: > 100 µM (inactive)
HCT-116
  GI50: > 100 µM (inactive)
HCT-15
  GI50: > 100 µM
HL-60
  GI50: > 100 µM (inactive)
HOP-18
  GI50: > 100 µM (inactive)
HOP-62
  GI50: > 100 µM (inactive)
HOP-92
  GI50: > 100 µM (inactive)
HT-29
  GI50: 53.2 µM (inactive)
IGROV-1
  GI50: > 100 µM (inactive)
KM-20L2
  GI50: > 100 µM (inactive)
KM12
  GI50: > 100 µM (inactive)
LOX IMVI
  GI50: > 100 µM (inactive)
LXFL 529
  GI50: > 100 µM (inactive)
M14
  GI50: > 100 µM (inactive)
M19-MEL
  GI50: 84.7 µM (inactive)
MOLT-4
  GI50: > 100 µM (inactive)
Malme-3M
  GI50: > 100 µM (inactive)
NCI-H226
  GI50: > 100 µM (inactive)
NCI-H23
  GI50: > 100 µM (inactive)
NCI-H460
  GI50: > 100 µM (inactive)
NCI-H522
  GI50: > 100 µM (inactive)
OVCAR-3
  GI50: > 100 µM (inactive)
OVCAR-4
  GI50: > 100 µM (inactive)
OVCAR-8
  GI50: > 100 µM (inactive)
RXF 393
  GI50: > 100 µM (inactive)
SF-268
  GI50: > 100 µM (inactive)
SF-295
  GI50: > 100 µM (inactive)
SF-539
  GI50: > 100 µM (inactive)
SK-MEL-28
  GI50: > 100 µM (inactive)
SK-MEL-2
  GI50: > 100 µM (inactive)
SK-MEL-5
  GI50: > 100 µM (inactive)
SK-OV-3
  GI50: > 100 µM (inactive)
SN12C
  GI50: > 100 µM (inactive)
SNB-19
  GI50: > 100 µM (inactive)
SNB-75
  GI50: 39.2 µM (inactive)
SR
  GI50: > 100 µM (inactive)
SW-620
  GI50: > 100 µM (inactive)
TK-10
  GI50: > 100 µM (inactive)
UACC-257
  GI50: > 100 µM (inactive)
UACC-62
  GI50: > 100 µM (inactive)
UO-31
  GI50: > 100 µM (inactive)
XF498
  GI50: > 100 µM (inactive)

## C[n+]1ccc(Nc2ccc(NC(=O)c3ccc(Nc4cc[n+](C)c5ccc([N+](=O)[O-])cc45)cc3[N+](=O)[O-])cc2)cc1
786-0
  GI50: 27.4 µM (inactive)
A498
  GI50: 64 µM (inactive)
A549
  GI50: 22 µM (inactive)
ACHN
  GI50: > 100 µM (inactive)
CAKI-1
  GI50: > 73.1 µM (inactive)
CCRF-CEM
  GI50: 33.2 µM (inactive)
COLO 205
  GI50: 22.5 µM (inactive)
DLD-1
  GI50: > 86.7 µM (inactive)
DMS-114
  GI50: 0.692 µM (active)
DMS-273
  GI50: 27.2 µM (inactive)
EKVX
  GI50: 47.6 µM (inactive)
HCT-116
  GI50: 30.5 µM (inactive)
HCT-15
  GI50: 61.2 µM
HOP-18
  GI50: 20.5 µM (inactive)
HOP-62
  GI50: 47.1 µM (inactive)
HOP-92
  GI50: 26.9 µM (inactive)
HT-29
  GI50: > 100 µM (inactive)
IGROV-1
  GI50: > 100 µM (inactive)
K562
  GI50: 20.8 µM (inactive)
KM-20L2
  GI50: > 100 µM (inactive)
KM12
  GI50: 47.8 µM (inactive)
LOX IMVI
  GI50: > 39.7 µM (inactive)
LXFL 529
  GI50: 15.8 µM (inactive)
M14
  GI50: 63.4 µM (inactive)
M19-MEL
  GI50: 18.3 µM (inactive)
MOLT-4
  GI50: 35.3 µM (inactive)
Malme-3M
  GI50: 19.5 µM (inactive)
NCI-H226
  GI50: 50.4 µM (inactive)
NCI-H23
  GI50: 29.7 µM (inactive)
NCI-H460
  GI50: 23.7 µM (inactive)
NCI-H522
  GI50: 13.8 µM (inactive)
NCI/ADR-RES
  GI50: > 52.4 µM (inactive)
OVCAR-3
  GI50: 17.8 µM (inactive)
OVCAR-4
  GI50: 34.5 µM (inactive)
OVCAR-5
  GI50: > 100 µM (inactive)
OVCAR-8
  GI50: 22.8 µM (inactive)
RPMI-8226
  GI50: 13.3 µM (inactive)
RXF 393
  GI50: > 83.8 µM (inactive)
SF-268
  GI50: 30.9 µM (inactive)
SF-295
  GI50: 27.8 µM (inactive)
SF-539
  GI50: 27 µM (inactive)
SK-MEL-28
  GI50: 28.4 µM (inactive)
SK-MEL-2
  GI50: 50.1 µM (inactive)
SK-MEL-5
  GI50: 23.3 µM (inactive)
SK-OV-3
  GI50: 57.8 µM (inactive)
SN12C
  GI50: 48.8 µM (inactive)
SNB-19
  GI50: > 59.2 µM (inactive)
SNB-75
  GI50: > 60.1 µM (inactive)
SR
  GI50: > 100 µM (inactive)
TK-10
  GI50: > 100 µM (inactive)
U-251
  GI50: 21.7 µM (inactive)
UACC-257
  GI50: 23.6 µM (inactive)
UACC-62
  GI50: 31.3 µM (inactive)
UO-31
  GI50: 47.6 µM (inactive)
XF498
  GI50: 33.5 µM (inactive)

From ChEMBL document CHEMBL1201862, “PubChem BioAssay data set” (2004)
